In this experiment the target is T1, PASK (Invitrogen) (Homo sapiens, UniProt Q96RG2).
T1 construct: IC50 Kinase Domain; purchased Invitrogen
The experiment in a line: PAS Kinase FRET Assay. It counts as biochemical. The following applies: PAS kinase TR-FRET assay (665 nm/615 nm), 2 hours at 25° C.; read-out: IC50 Kinase Domain. The text has this: Biochemical Assay for hPASK Activity
The aim of the FRET assay is to determine the inhibition potential of test compounds on targeted kinase. This assay platform provides a homogenous screening method for measuring kinase activity by quantitating the amount of phospho-substrate in solution following a kinase reaction.
In the presence of kinase and ATP, the Ulight-peptide is phosphorylated and captured by an anti-phospho-substrate antibody, which brings the Eu chelate donor and Ulight acceptor dyes into close proximity.
Titration of kinase at 1 mM ATP was achieved via the following protocol. […] The contents of the plate were incubated at RT for 1 h. The reaction was stopped by adding 5 μl of stop solution to each test well followed by mixing and incubation at RT for 10 minutes. 5 μl of detection mix (detection antibody diluted in detection buffer) was added; the contents of the plate were mixed and then incubated in the dark for 1 hour at RT. […] The results were graphed to calculate the EC50.
Titration of ATP at the EC50 concentration of kinase to determine ATP Km,app. was performed using the following method. […] The contents of the plate were and incubated at RT for 1 h. The reaction was stopped by adding 5 μl of stop solution to each test well followed by mixing and incubation at RT for 10 minutes. […] (detection antibody diluted in detection buffer) was added; the contents of the plate were mixed and then incubated in the dark for 1 hour at RT. […] The results were graphed to calculate the EC50 as the ATP Km,app.
Compound screening was done via the following method. 10 mM stock solution of test compound in DMSO was prepared by dissolving test compound in DMSO at RT for 1 hour, and then sonicating at 100% output for 8 minutes. If compound is not soluble under this condition, it was diluted to 3 mM. Kinase reaction buffer was prepared containing 10 mM MgCl2, 50 mM HEPES, 1 mM EGTA, 0.01% TWEEN-20, 2 mM DTT. […] As a positive control, 2.5 μl of positive compound was added to assay wells, and 2.5 μl of DMSO to assay wells as vehicle control. Kinase solution was prepared in reaction buffer at 2× final assay concentration. Kinase solution (5 μl) was added to each well of the assay plate. The substrate and ATP solution was prepared in kinase reaction buffer at 4× final assay concentration. The kinase reaction was started by adding 2.5 μl of substrate+ATP mix solution to each well of the assay plate. The plate is mixed on a plate shaker; then covered and allowed to react for 2 hours in the dark at 25° C. without shaking. The reaction was stopped by adding 5 μl of stop solution to each test well followed by mixing and incubation at RT for 10 minutes in the dark. 5 μl of detection mix (detection antibody diluted in detection buffer) was added; the contents of the plate were mixed and then incubated in the dark for 1 hour at RT.

The source of these data is US8912188B2, “Substituted quinoxaline carboxylic acids for the inhibition of PASK” (BioEnergenix, LLC, priority 2011, dated 2014).

T1 sequence (Q96RG2 999-1251 limits assumed): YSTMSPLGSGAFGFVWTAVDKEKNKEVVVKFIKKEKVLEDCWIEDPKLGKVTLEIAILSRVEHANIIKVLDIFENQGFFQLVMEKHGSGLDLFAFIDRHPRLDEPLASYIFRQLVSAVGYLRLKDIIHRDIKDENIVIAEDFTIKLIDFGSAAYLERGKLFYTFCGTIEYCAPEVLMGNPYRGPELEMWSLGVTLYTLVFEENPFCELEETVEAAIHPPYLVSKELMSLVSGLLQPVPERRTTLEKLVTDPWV

Turning to `CC(=O)N[C@H]1CC[C@H](N(C)c2nc3cc(C(=O)O)ccc3nc2-c2ccc(F)cc2)CC1` [Example 127, 3-(((1r,4r)-4-Acetamidocyclohexyl)(methyl)amino)-2-(4-fluorophenyl)quinoxaline-6-carboxylic acid], the IC50 is below 10 µM.
For the compound `Cc1cc2cc(-c3nc4ccc(C(=O)O)cc4nc3N3CCN(c4ccccn4)C[C@@H]3C)ccc2[nH]1` [Example 99, (S)-2-(2-Methyl-1H-indol-5-yl)-3-(2-methyl-4-(pyridin-2-yl)piperazin-1-yl)quinoxaline-6-carboxylic acid], the half-inhibitory concentration (IC50) is below 10 µM.
`CN(Cc1ccccc1)c1nc2cc(C(=O)O)ccc2nc1-c1ccc2[nH]ncc2c1` [Example 97, 3-(Benzyl(methyl)amino)-2-(1H-indazol-5-yl)quinoxaline-6-carboxylic acid]: the IC50 was below 10 µM.
In the case of `CC(C)N(C)c1nc2cc(C(=O)O)ccc2nc1-c1ccc2cn[nH]c2c1` [Example 4, 2-(1H-Indazol-6-yl)-3-(isopropyl(methyl)amino)quinoxaline-6-carboxylic acid], the IC50 was below 10 µM.
To `CC(C)N(C)c1nc2cc(C(=O)O)ccc2nc1-c1cnn(-c2ccccc2)c1` [Example 91, 3-[Methyl(propan-2-yl)amino]-2-(1-phenyl-1H-pyrazol-4-yl)quinoxaline-6-carboxylic acid] belongs below 10 µM; to `CCN1CCC(N(C)c2nc3cc(C(=O)O)ccc3nc2-c2ccc(F)cc2)CC1` [Example 137, 3-[(1-Ethylpiperidin-4-yl)(methyl)amino]-2-(4-fluorophenyl)quinoxaline-6-carboxylic acid], below 10 µM; to `CC(C)N(C)c1nc2cc(C(=O)O)ccc2nc1-c1ccc(C(F)(F)F)cc1` [Example 136, 3-(Isopropyl(methyl)amino)-2-(4-(trifluoromethyl)phenyl)quinoxaline-6-carboxylic acid], below 10 µM.
Then `CC(C)N(C)c1nc2cc(C(=O)O)ccc2nc1-c1ccc2oncc2c1` [Example 50, 2-(1,2-Benzoxazol-5-yl)-3-[methyl(propan-2-yl)amino]quinoxaline-6-carboxylic acid], with below 10 µM.
In the case of `C[C@H]1CCCN1c1nc2cc(C(=O)O)ccc2nc1-c1coc2ccccc12` [Example 82, 2-(1-Benzofuran-3-yl)-3-[(2S)-2-methylpyrrolidin-1-yl]quinoxaline-6-carboxylic acid], the concentration for half-maximal inhibition (IC50) was below 10 µM.
Turning to `CC(=O)N1CCN(c2nc3cc(C(=O)O)ccc3nc2-c2ccc(F)cc2)CC1` [Example 128, 3-(4-Acetylpiperazin-1-yl)-2-(4-fluorophenyl)quinoxaline-6-carboxylic acid], the IC50 was below 10 µM.
To `CC(C)N(C)c1nc2cc(C(=O)O)ccc2nc1-c1cc2ccc(Cl)cc2o1` [Example 31, 2-(6-Chloro-1-benzofuran-2-yl)-3-[methyl(propan-2-yl)amino]quinoxaline-6-carboxylic acid] belongs below 10 µM; to `CN(Cc1ccccn1)c1nc2cc(C(=O)O)ccc2nc1-c1ccc(F)cc1` [Example 134, 2-(4-Fluorophenyl)-3-[methyl(pyridin-2-ylmethyl)amino]quinoxaline-6-carboxylic acid], below 10 µM.
To `O=C(O)c1ccc2nc(-c3cc4ccccc4s3)c(N3CCCCCC3)nc2c1` [Example 54, 3-(Azepan-1-yl)-2-(benzo[b]thiophen-2-yl)quinoxaline-6-carboxylic acid] belongs below 10 µM.
To `CC(C)N(C)c1nc2cc(C(=O)O)ccc2nc1-c1ccc2c(c1)OCCCO2` [Example 20, 2-(3,4-Dihydro-2H-benzo[b][1,4]dioxepin-7-yl)-3-(isopropyl(methyl)amino)quinoxaline-6-carboxylic acid] belongs below 10 µM.
Regarding `C[C@H]1CCCN1c1nc2cc(C(=O)O)ccc2nc1-c1ccc2c(c1)OC(F)(F)O2` [Example 34, (S)-2-(2,2-Difluorobenzo[d][1,3]dioxol-5-yl)-3-(2-methylpyrrolidin-1-yl)quinoxaline-6-carboxylic acid], the IC50 is below 10 µM.
